The assay deals with ^125 I-insulin (Homo sapiens, UniProt P01308). In words: 125I-insulin binding to water suspension of the peptide, centrifugation. The protocol:
To test for insulin binding, a water suspension of the peptide was incubated at room temperature with a tracer of ^125 I-insulin followed by simple centrifugation. […] The apparent dissociation constant was ~6×10^-7 M. Non-specific binding was negligible.

Where a SMILES comes first, the peptide text is derived from it.

Chain of ^125 I-insulin (P01308 25-54 limits assumed): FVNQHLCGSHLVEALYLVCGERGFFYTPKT
Chain of ^125 I-insulin (P01308 90-110 limits assumed): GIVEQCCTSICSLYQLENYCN

As to `CC[C@H](C)[C@H](NC(=O)[C@@H](NC(=O)[C@H](CC(C)C)NC(=O)[C@H](C)NC(=O)[C@H](Cc1ccc(O)cc1)NC(=O)[C@H](CC(N)=O)NC(=O)[C@H](Cc1ccccc1)NC(=O)[C@H](Cc1ccccc1)NC(=O)[C@H](CC(C)C)NC(=O)[C@@H](N)CCCNC(=N)N)C(C)C)C(=O)N[C@@H](Cc1ccccc1)C(=O)N[C@@H](CCC(=O)O)C(=O)N[C@@H](CCSC)C(=O)N[C@H](C(=O)N[C@@H](Cc1c[nH]cn1)C(=O)N[C@@H](CC(C)C)C(=O)N[C@@H](CCCCN)C(=O)N[C@@H](CCC(=O)O)C(=O)O)C(C)C` [Sequence I] (H-RLFFNYALVIFEMVHLKE-OH), the Kd (displacement of ^125 I-insulin by unlabelled insulin (FIG. 4), read-out: apparent dissociation constant) was about 0.6 µM. Moreover, under “water suspension of the peptide, room temperature, centrifugation”, the “fraction of ^125 I-insulin tracer bound by the peptide” value is recorded as “up to 30%”.
